From paper PMC9620261 (Journal of Medicinal Chemistry, 2022)
pIC50: −log10 of the molar value. Where two headings read alike, the source gives them in different places.

Columns and labels:
[1] = tested on: ENO1–/– intracranial orthotopic tumors; conditions: cited from earlier work; for effect on ENO1–/– intracranial orthotopic tumors: mice, 6: 10 mg/kg IV and IP, 5: 150 mg/kg IV and 100 mg/kg IP
[2] = 20% D2O, 31P NMR; for hydrolysis in human serum/plasma: 80% human plasma/serum
[3] = tested on: D423 (ENO1–/–) glioma cells; assay: In vitro cytotoxicity of prodrugs, three-cell line assay
[4] = 80% DMEM, 20% D2O, 31P NMR
NCI-60 cell line panel = type: cell-based; conditions: 10 μM, 24 h
[5] = tested on: LN319 (ENO1+/+) glioma cells; assay: cells; conditions: LN-319, 144 h, read-out: IC50 LN319 (ENO1+/+), 6 day treatment
[6] = tested on: D423 ENO1 (ENO1-isogenic rescue) glioma cells; assay: In vitro cytotoxicity of prodrugs, three-cell line assay
[7] = tested on: LN319 (ENO1+/+) glioma cells; conditions: read-out: IC50 LN319 (ENO1+/+); 6 day treatment
[8] = Glioma cell, 144 h, read-out: IC50 D423 (ENO1–/–), 1% O2 (hypoxic), 6 days
[9] = Glioma cell, 144 h, read-out: IC50 D423 (ENO1–/–), 6 day treatment
[10] = read-out: IC50 D423 (ENO1–/–), 6 day treatment

CC(C)(C)C(=O)OCOP(=O)(OCOC(=O)C(C)(C)C)C1CCCN(O)C1=O (stereo not drawn) [compound 6, POMHEX]
drug-related adverse events ([1]; 50 day in vivo evaluation): no drug-related adverse events were observed
effect on ENO1–/– intracranial orthotopic tumors [1]: profound tumor regression
hydrolysis in human serum/plasma [2]: rapidly hydrolyzed to the mono-POM ester intermediate
pIC50 [3, 8]: 6.70
pIC50 ([3]; Glioma cell, 144 h, read-out: IC50 D423 (ENO1–/–), 21% O2, 6 days): 7.10

CC(C)C(=O)ON1CCCC(P2(=O)OCc3ccccc3O2)C1=O (stereo not drawn) [compound 30, 3-(2-Oxido-4H-benzo[d][1,3,2]dioxaphosphinin-2-yl)-2-oxopiperidin-1-yl Isobutyrate]
time by which no intact prodrug is present in cell culture media [4]: ≤ 3 h
time by which no intact prodrug is detectable in human plasma/serum ([2]; 80% human plasma, 37 °C): ≤ 3 h

CCCCCCCCCCCCCCCCOCCCOP(=O)(O)C1CCCN(O)C1=O (stereo not drawn) [compound 28]
Average % Growth: Melanoma (NCI-60 cell line panel): 5%

O=C1C(P(=O)(O)O)CCCN1O (stereo not drawn) [compound 5]
pIC50 [5]: < 3.52
effect on ENO1–/– intracranial orthotopic tumors [1]: profound tumor regression

CC(C)OC(=O)[C@H](C)NP(=O)(Oc1ccccc1)C1CCCN(O)C1=O (stereo partly drawn) [compound 17]
time prodrug remains stable/intact in human serum/plasma ([2]; 80% human plasma, 37 °C): over 9 h
hydrolysis in human serum/plasma [2]: incomplete even after 336 h

CC(C)OC(=O)[C@H](C)NP(=O)(OCOC(=O)C(C)(C)C)C1CCCN(O)C1=O (stereo partly drawn) [20o]
pIC50 [3, 9]: 6.69

O=C1C(P(=O)(NCc2ccccc2)Oc2ccc(F)cc2)CCCN1O (stereo not drawn) [compound 26, 4-Fluorophenyl N-Benzyl-P-(1-hydroxy-2-oxopiperidin-3-yl)phosphonamidate]
pIC50 [3, 9]: < 4.00
pIC50 ([6]; Glioma cell, 144 h, read-out: IC50 D423 ENO1 (ENO1-tg), 6 day treatment): < 4.00

Bis(cyanomethyl)(1-hydroxy-2-oxopiperidin-3-yl)phosphonate [compound 29]
pIC50 [7]: < 4.00
t1/2 in human plasma ([2]; 80% human plasma, 37 °C): approximately 10 h
pIC50 [3, 10]: < 4.00

CC(=O)ON1CCCC(P(=O)(NCc2ccccc2)OCc2ccc([N+](=O)[O-])o2)C1=O (stereo not drawn) [compound 24]
pIC50 [3, 8]: 6.87

CC(C)(C)C(=O)OCOP(=O)(NCc1ccccc1)C1CCCN(O)C1=O (stereo not drawn) [20b]
pIC50 [3, 9]: 6.61

CC(C)OC(=O)[C@H](C)N[P@](=O)(CO[C@H](C)Cn1cnc2c(N)ncnc21)Oc1ccccc1 [TAF, tenofovir alafenamide, reference compound]
hydrolysis in human serum/plasma [2]: occurs rapidly

Cyanomethyl N-Benzyl-P-(1-hydroxy-2-oxopiperidin-3-yl)phosphonamidate [compound 25]
pIC50 [3, 10]: 5.18
pIC50 ([3]; read-out: IC50 in D423 cells, 6 day treatment): ~5.15
pIC50 ([6]; read-out: IC50 D423 ENO1 (ENO1-tg), 6 day treatment): < 4.15
